What follows are molecules tested against T1, MAPKAPK5 (Homo sapiens, UniProt Q8IW41) (assay: MAPKAP-K5 assay (FlashPlate, 33P-ATP)). Details: 0.6 μM ATP; 3 μM peptide substrate; room temperature 30 minutes.
T1 sequence (Q8IW41 1-471 isoform Q8IW41-2): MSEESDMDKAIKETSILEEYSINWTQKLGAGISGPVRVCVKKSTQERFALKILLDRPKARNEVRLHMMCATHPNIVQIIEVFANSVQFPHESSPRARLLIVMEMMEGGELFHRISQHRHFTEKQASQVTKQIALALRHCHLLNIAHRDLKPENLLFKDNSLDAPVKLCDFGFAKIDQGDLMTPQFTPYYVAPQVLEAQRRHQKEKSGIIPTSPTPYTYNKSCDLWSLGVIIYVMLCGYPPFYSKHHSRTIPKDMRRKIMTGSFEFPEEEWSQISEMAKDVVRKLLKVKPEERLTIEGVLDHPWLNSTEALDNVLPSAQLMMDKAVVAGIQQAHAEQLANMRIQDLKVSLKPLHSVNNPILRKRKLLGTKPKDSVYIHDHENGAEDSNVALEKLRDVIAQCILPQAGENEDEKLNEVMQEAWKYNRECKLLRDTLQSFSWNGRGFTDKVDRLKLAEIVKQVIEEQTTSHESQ
Format: biochemical
Protocol: 3 μM MAPKAP-K5 peptide substrate

First: O=C1NCc2cc(-c3cnc(Nc4nc(CN5CCOCC5)cs4)c4nccn34)ccc21 [Example 1, 5-(8-(4-(morpholinomethyl)thiazol-2-ylamino)imidazo[1,2-a]pyrazin-5-yl)isoindolin-1-one]
Second: O=C1NCc2cc(-c3cnc(Nc4nc(CN5CCCCC5)cs4)c4nccn34)ccc21 [Example 9, 5-(8-(4-(piperidin-1-ylmethyl)thiazol-2-ylamino)imidazo[1,2-a]pyrazin-5-yl)isoindolin-1-one]
The IC50 of the first is higher: 101 to 500 nM for the first, 1 to 100 nM for the second. The second is the more potent here.

`c1nc2c(Nc3nc(CN4CCOCC4)cs3)ncc(-c3cn[nH]c3)n2n1` [Example 3, N-(5-(1H-pyrazol-4-yl)-[1,2,4]triazolo[1,5-a]pyrazin-8-yl)-4-(morpholinomethyl)thiazol-2-amine] and `c1nc2c(Nc3nc(CN4CCCCC4)cs3)ncc(-c3cn[nH]c3)n2n1` [Example 25, N-(5-(1H-pyrazol-4-yl)-[1,2,4]triazolo[1,5-a]pyrazin-8-yl)-4-(piperidin-1-ylmethyl)thiazol-2-amine] cannot be ordered by IC50: greater than 1000 nM for the first, greater than 1000 nM for the second.

Compared with `NC(=O)c1cc(-c2cnc(Nc3nc(CN4CCCCC4)cs3)c3ncnn23)co1` [Example 4, 4-(8-(4-(piperidin-1-ylmethyl)thiazol-2-ylamino)-[1,2,4]triazolo[1,5-a]pyrazin-5-yl)furan-2-carboxamide], `O=C1NCc2cc(-c3cnc(Nc4ncc(CN5CCCCC5)s4)c4nccn34)ccc21` [Example 24, 5-(8-(5-(piperidin-1-ylmethyl)thiazol-2-ylamino)imidazo[1,2-a]pyrazin-5-yl)isoindolin-1-one] is higher in IC50: 1 to 100 nM for the first, greater than 1000 nM for the second. The first is the more potent here.

First: O=C1NCc2cc(-c3cnc(Nc4nccs4)c4nccn34)ccc21 [Example 6, 5-(8-(thiazol-2-ylamino)imidazo[1,2-a]pyrazin-5-yl)isoindolin-1-one]
Second: O=C1NCc2cc(-c3cnc(Nc4nncs4)c4nccn34)ccc21 [Example 19, 5-(8-(1,3,4-thiadiazol-2-ylamino)imidazo[1,2-a]pyrazin-5-yl)isoindolin-1-one]
The IC50 of the first is lower: 101 to 500 nM for the first, greater than 1000 nM for the second.

`c1csc(Nc2ncc(-c3cn[nH]c3)n3ccnc23)n1` [Example 7, N-(5-(1H-pyrazol-4-yl)imidazo[1,2-a]pyrazin-8-yl)thiazol-2-amine] and `CN(C)Cc1cnc(Nc2ncc(-c3cn[nH]c3)n3ccnc23)s1` [Example 17, N-(5-(1H-pyrazol-4-yl)imidazo[1,2-a]pyrazin-8-yl)-5-((dimethylamino)methyl)thiazol-2-amine] cannot be ordered by IC50: greater than 1000 nM for the first, greater than 1000 nM for the second.

First: Cc1nc(Nc2ncc(-c3ccc4c(c3)CNC4=O)n3ccnc23)sc1C(=O)N(C)C [Example 10, N,N,4-trimethyl-2-(5-(1-oxoisoindolin-5-yl)imidazo[1,2-a]pyrazin-8-ylamino)thiazole-5-carboxamide]
Second: Cc1cnc(Nc2ncc(-c3ccc4c(c3)CNC4=O)n3ccnc23)s1 [Example 11, 5-(8-(5-methylthiazol-2-ylamino)imidazo[1,2-a]pyrazin-5-yl)isoindolin-1-one]
The IC50 of the first is lower: 101 to 500 nM for the first, 501 to 1000 nM for the second.

Compared with `O=C1NCc2cc(-c3cnc(Nc4nc5c(s4)CCC5)c4nccn34)ccc21` [Example 12, 5-(8-(5,6-dihydro-4H-cyclopenta[d]thiazol-2-ylamino)imidazo[1,2-a]pyrazin-5-yl)isoindolin-1-one], `CN1CCN(c2nnc(Nc3ncc(-c4ccc5c(c4)CNC5=O)n4ccnc34)s2)CC1` [Example 20, 5-(8-(5-(4-methylpiperazin-1-yl)-1,3,4-thiadiazol-2-ylamino)imidazo[1,2-a]pyrazin-5-yl)isoindolin-1-one] is lower in IC50: greater than 1000 nM for the first, 501 to 1000 nM for the second. The second is the more potent here.

Compared with `O=C1NCc2cc(-c3cnc(Nc4ncc(C(=O)N5CCOCC5)s4)c4nccn34)ccc21` [Example 13, 5-(8-(5-(morpholine-4-carbonyl)thiazol-2-ylamino)imidazol[1,2-a]pyrazin-5-yl)isoindolin-1-one], `O=C1NCc2cc(-c3cnc(Nc4ncc(CN5CCOCC5)s4)c4nccn34)ccc21` [Example 16, 5-(8-(5-(morpholinomethyl)thiazol-2-ylamino)imidazo[1,2-a]pyrazin-5-yl)isoindolin-1-one] is lower in IC50: 501 to 1000 nM for the first, 101 to 500 nM for the second. The second is the more potent here.

Compared with `O=C1NCc2cc(-c3cnc(Nc4nnc(CCN5CCCCC5)s4)c4nccn34)ccc21` [Example 14, 5-(8-(5-(2-(piperidin-1-yl)ethyl)-1,3,4-thiadiazol-2-ylamino)imidazo[1,2-a]pyrazin-5-yl)isoindolin-1-one], `CC(C)N1CCN(Cc2cnc(Nc3ncc(-c4ccc5c(c4)CNC5=O)n4ccnc34)s2)CC1` [Example 18, 5-(8-(5-((4-isopropylpiperazin-1-yl)methyl)thiazol-2-ylamino)imidazo[1,2-a]pyrazin-5-yl)isoindolin-1-one] is lower in IC50: 501 to 1000 nM for the first, 101 to 500 nM for the second.

`c1cn2c(-c3cn[nH]c3)cnc(Nc3ncc(CN4CCOCC4)s3)c2n1` [Example 15, N-(5-(1H-pyrazol-4-yl)imidazo[1,2-a]pyrazin-8-yl)-5-(morpholinomethyl)thiazol-2-amine] and `CC(C)N1CCN(C(=O)c2cnc(Nc3ncc(-c4cn[nH]c4)n4ccnc34)s2)CC1` [Example 23] cannot be ordered by IC50: greater than 1000 nM for the first, greater than 1000 nM for the second.
